This assay addresses T1, human IL-17AA (Homo sapiens, UniProt Q16552).
T1 construct: host or cells: HEK (human embryonic kidney) cells
T1 sequence (Q16552 24-155) 1: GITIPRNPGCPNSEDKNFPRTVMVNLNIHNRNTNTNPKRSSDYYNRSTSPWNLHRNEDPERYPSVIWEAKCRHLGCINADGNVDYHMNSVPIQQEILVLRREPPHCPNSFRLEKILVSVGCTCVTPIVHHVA
T1 sequence (Q16552 24-155) 2: T1 sequence (Q16552 24-155) 1
Kind of assay: IL-8 release assay in human epithelial keratinocytes adult (HEKa). Format: cell-based. The conditions noted are these: 3 ng/ml human IL-17AA + 10 ng/ml human TNFalpha, 68-72 h, IL-8 by HTRF, read-out: Rel EC50 L-8 release assay. The method, boiled down: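 Adult human keratinocytes in Epilife with HKGS minus hydrocortisone, treated with compound then stimulated with final 3 ng/ml HEK-derived human IL-17AA plus 10 ng/ml TNF-alpha for 68–72 h at 37 °C; TNF-alpha alone defines 100% inhibition. Secreted IL-8 by HTRF; relative IC50 and Emax from four-parameter fits.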
The EC50 is the concentration that produces a half-maximal response. As to `Cc1nocc1C(=O)NC(Cc1cc(-c2ccc(=O)n(C(C)C)c2)ccc1Cl)C(=O)Nc1ccc(-c2cncn2C)c(Cl)c1` (centres unmarked) [Example 103, N-[1-[[2-chloro-5-(1-isopropyl-6-oxo-3-pyridyl)phenyl]methyl]-2-[3-chloro-4-(3-methylimidazol-4-yl)anilino]-2-oxo-ethyl]-3-methyl-isoxazole-4-carboxamide], the EC50 is less than 100 nM.
`CC(C)n1cc(-c2ccc(Cl)c(CC(NC(=O)c3conc3C(C)(C)C)C(=O)Nc3ccc(-c4nncn4C)cc3)c2)ccc1=O` (centres unmarked) [Example 96, 3-tert-butyl-N-[1-[[2-chloro-5-(1-isopropyl-6-oxo-3-pyridyl)phenyl]methyl]-2-[4-(4-methyl-1,2,4-triazol-3-yl)anilino]-2-oxo-ethyl]isoxazole-4-carboxamide]: the EC50 lay in the range of 100 to 1000 nM.
Take `CC(C)n1cc(-c2ccc(Cl)c(CC(NC(=O)OC3CCC3)C(=O)Nc3ccc(-c4nncn4C)cc3)c2)ccc1=O` (centres unmarked) [Example 105, cyclobutyl N-[1-[[2-chloro-5-(1-isopropyl-6-oxo-3-pyridyl)phenyl]methyl]-2-[4-(4-methyl-1,2,4-triazol-3-yl)anilino]-2-oxo-ethyl]carbamate]: the EC50 lay in the range of 100 to 1000 nM.
As for `CC(C)n1cc(-c2ccc3c(c2)[C@@H]([C@@H](NC(=O)OC(C)(C)C)C(=O)Nc2ccc(-c4cncn4C)cc2)CCC3)ccc1=O` [Example 45, tert-butyl N-[(1R)-1-[(1S)-7-(1-isopropyl-6-oxo-3-pyridyl)tetralin-1-yl]-2-[4-(3-methylimidazol-4-yl)anilino]-2-oxo-ethyl]carbamate], the EC50 was in the range of 100 to 1000 nM.
On to `Cc1n[nH]c(C)c1-c1ccc(NC(=O)[C@@H](NC(=O)c2ccnn2C)[C@@H]2CCCc3ccc(-c4ccc5c(c4)CCNC5)cc32)cc1` [Example 38, N-[(1S)-2-[4-(3,5-dimethyl-1H-pyrazol-4-yl)anilino]-2-oxo-1-[(1R)-7-(1,2,3,4-tetrahydroisoquinolin-6-yl)tetralin-1-yl]ethyl]-2-methyl-pyrazole-3-carboxamide], for which the EC50 is less than 100 nM.
With `Cc1cnn(C)c1-c1ccc(NC(=O)[C@@H](NC(=O)C2(F)CC2)[C@@H]2CCCc3ccc(-c4ccnc(N5C[C@H]6C[C@@H]5CO6)c4)cc32)cc1` [Example 399, N-[(1S)-2-[4-(2,4-dimethylpyrazol-3-yl)anilino]-1-[(1R)-7-[2-[(1R,4R)-2-oxa-5-azabicyclo[2.2.1]heptan-5-yl]-4-pyridyl]tetralin-1-yl]-2-oxo-ethyl]-1-fluoro-cyclopropanecarboxamide], the EC50 was less than 100 nM.
As for `CC(C)n1cc(-c2ccc(Cl)c(C[C@H](NC(=O)C3(F)CC3)C(=O)Nc3ccc(-c4nncn4C)cc3)c2)ccc1=O` [Example 92, N-[(1S)-1-[[2-chloro-5-(1-isopropyl-6-oxo-3-pyridyl)phenyl]methyl]-2-[4-(4-methyl-1,2,4-triazol-3-yl)anilino]-2-oxo-ethyl]-1-fluoro-cyclopropanecarboxamide], the figure is more than 1000 nM; as for `Cc1n[nH]c(C)c1-c1ccc(NC(=O)[C@H](Cc2cc(-c3ccc(=O)n(C(C)C)c3)ccc2Cl)NC(=O)c2ccnn2C)cc1O` [Example 177, N-[(1S)-1-[[2-chloro-5-(1-isopropyl-6-oxo-3-pyridyl)phenyl]methyl]-2-[4-(3,5-dimethyl-1H-pyrazol-4-yl)-3-hydroxy-anilino]-2-oxo-ethyl]-2-methyl-pyrazole-3-carboxamide], less than 100 nM.
With `Cn1cnnc1-c1ccc(NC(=O)C(Cc2cc(-c3ccc(O)c(CN4CCNCC4)c3)ccc2Cl)NC(=O)c2ccnn2C)cc1` (centres unmarked) [Example 157, N-[1-[[2-chloro-5-[4-hydroxy-3-(piperazin-1-ylmethyl)phenyl]phenyl]methyl]-2-[4-(4-methyl-1,2,4-triazol-3-yl)anilino]-2-oxo-ethyl]-2-methyl-pyrazole-3-carboxamide], the EC50 is 100 to 1000 nM.
Regarding `Cc1n[nH]c(C)c1-c1ccc(NC(=O)[C@@H](NC(=O)C2(F)CC2)[C@@H]2CCc3ccc(-c4ccnc(N5C[C@@H]6C[C@H]5CO6)c4)cc32)cc1` [Example 354, N-[(1S)-2-[4-(3,5-dimethyl-1H-pyrazol-4-yl)anilino]-1-[(1R)-6-[2-[(1S,4S)-2-oxa-5-azabicyclo[2.2.1]heptan-5-yl]-4-pyridyl]indan-1-yl]-2-oxo-ethyl]-1-fluoro-cyclopropanecarboxamide], the EC50 is less than 100 nM.
For the compound `CC(c1cccc(-c2ccc(=O)n(C(C)C)c2)c1)[C@H](NC(=O)c1ccnn1C)C(=O)Nc1ccc(-c2cncn2C)cc1` (stereo partly drawn) [Example 56, N-[(1S)-2-[3-(1-isopropyl-6-oxo-3-pyridyl)phenyl]-1-[[4-(3-methylimidazol-4-yl)phenyl]carbamoyl]propyl]-2-methyl-pyrazole-3-carboxamide], the EC50 was more than 1000 nM.
In the case of `CC(C)OC(=O)N[C@@H](Cc1cc(-c2ccc(=O)n(C(C)C)c2)ccc1Cl)C(=O)Nc1ccc(-c2nncn2C)cc1` [Example 99, isopropyl N-[(1S)-1-[[2-chloro-5-(1-isopropyl-6-oxo-3-pyridyl)phenyl]methyl]-2-[4-(4-methyl-1,2,4-triazol-3-yl)anilino]-2-oxo-ethyl]carbamate], the EC50 is more than 1000 nM.
In the case of `Cc1n[nH]c(C)c1-c1ccc(NC(=O)[C@@H](NC(=O)c2ccnn2C)[C@@H]2CCCc3ccc(-c4cnn(C5CC5)c4)cc32)cc1` [Example 26, N-[(1S)-1-[(1R)-7-(1-cyclopropylpyrazol-4-yl)tetralin-1-yl]-2-[4-(3,5-dimethyl-1H-pyrazol-4-yl)anilino]-2-oxo-ethyl]-2-methyl-pyrazole-3-carboxamide], the EC50 is less than 100 nM.
Regarding `CN(C)C(=O)c1cc(-c2ccc(Cl)c(CC(NC(=O)c3ccnn3C)C(=O)Nc3ccc(-c4nncn4C)cc3)c2)ccc1O` (centres unmarked) [Example 167, N-[1-[[2-chloro-5-[3-(dimethylcarbamoyl)-4-hydroxy-phenyl]phenyl]methyl]-2-[4-(4-methyl-1,2,4-triazol-3-yl)anilino]-2-oxo-ethyl]-2-methyl-pyrazole-3-carboxamide], the EC50 was more than 1000 nM.
Under `Cc1cc(-c2ccc3c(c2)[C@H]([C@H](NC(=O)c2ccnn2C)C(=O)Nc2ccc(-c4c(C)n[nH]c4C)cc2)CC3)ccc1CN1CCOCC1` [Example 18, N-[(1S)-2-[4-(3,5-dimethyl-1H-pyrazol-4-yl)anilino]-1-[(1R)-6-[3-methyl-4-(morpholinomethyl)phenyl]indan-1-yl]-2-oxo-ethyl]-2-methyl-pyrazole-3-carboxamide] stands less than 100 nM; under `CN1CCOC[C@@H]1c1cccc(-c2ccc(Cl)c(C[C@H](NC(=O)c3ccnn3C)C(=O)Nc3ccc(-c4cncn4C)cc3)c2)c1` [Example 217, N-[(1S)-1-[[2-chloro-5-[3-[(3S)-4-methylmorpholin-3-yl]phenyl]phenyl]methyl]-2-[4-(3-methylimidazol-4-yl)anilino]-2-oxo-ethyl]-2-methyl-pyrazole-3-carboxamide], 100 to 1000 nM; under `CN(C)c1cc(-c2ccc(Cl)c(CC(NC(=O)c3ccnn3C)C(=O)Nc3ccc(-c4cncn4C)cc3)c2)ccn1` (centres unmarked) [Example 162, N-[1-[[2-chloro-5-[2-(dimethylamino)-4-pyridyl]phenyl]methyl]-2-[4-(3-methylimidazol-4-yl)anilino]-2-oxo-ethyl]-2-methyl-pyrazole-3-carboxamide], 100 to 1000 nM.
Under `Cc1cc(-c2ccc(Cl)c(CC(NC(=O)c3ccnn3C)C(=O)Nc3ccc(-c4nncn4C4CC4)cc3)c2)ccn1` (centres unmarked) [Example 73, N-[1-[[2-chloro-5-(2-methyl-4-pyridyl)phenyl]methyl]-2-[4-(4-cyclopropyl-1,2,4-triazol-3-yl)anilino]-2-oxo-ethyl]-2-methyl-pyrazole-3-carboxamide] stands more than 1000 nM.
Consider `Cn1cncc1-c1ccc(NC(=O)C(Cc2cc(-c3ccnc(N4CCCC4)c3)ccc2Cl)NC(=O)c2ccnn2C)cc1` (centres unmarked) [Example 146, N-[1-[[2-chloro-5-(2-pyrrolidin-1-yl-4-pyridyl)phenyl]methyl]-2-[4-(3-methylimidazol-4-yl)anilino]-2-oxo-ethyl]-2-methyl-pyrazole-3-carboxamide], for which the EC50 fell in the range of 100 to 1000 nM.
Consider `CC(C)n1cc(-c2ccc3c(c2)C([C@H](NC(=O)c2ccnn2C)C(=O)Nc2ccc(-c4cncn4C)cc2)CC3)ccc1=O` (stereo partly drawn) [Example 25, N-[(1S)-1-[6-(1-isopropyl-6-oxo-3-pyridyl)indan-1-yl]-2-[4-(3-methylimidazol-4-yl)anilino]-2-oxo-ethyl]-2-methyl-pyrazole-3-carboxamide], for which the EC50 was 100 to 1000 nM.
On to `Cc1ncn(C)c1-c1ccc(NC(=O)[C@@H](NC(=O)OC2CC2)[C@@H]2CCCc3ccc(-c4ccnc(N5CCN(C)CC5)c4)cc32)cc1` [Example 32, cyclopropyl N-[(1S)-2-[4-(3,5-dimethylimidazol-4-yl)anilino]-1-[(1R)-7-[2-(4-methylpiperazin-1-yl)-4-pyridyl]tetralin-1-yl]-2-oxo-ethyl]carbamate], for which the EC50 lay in the range of 100 to 1000 nM.
As for `CC(C)Cn1cc(-c2ccc(Cl)c(C[C@H](NC(=O)OC3CC3)C(=O)Nc3ccc(-c4cncn4C)cc3)c2)nn1` [Example 214, cyclopropyl N-[(1S)-1-[[2-chloro-5-(1-isobutyltriazol-4-yl)phenyl]methyl]-2-[4-(3-methylimidazol-4-yl)anilino]-2-oxo-ethyl]carbamate], the figure is more than 1000 nM; as for `Cn1cncc1-c1ccc(NC(=O)C(Cc2cc(-c3ccnc(N4CCNCC4)c3)ccc2Cl)NC(=O)c2ccnn2C)cc1` (centres unmarked) [Example 197, N-[1-[[2-chloro-5-(2-piperazin-1-yl-4-pyridyl)phenyl]methyl]-2-[4-(3-methylimidazol-4-yl)anilino]-2-oxo-ethyl]-2-methyl-pyrazole-3-carboxamide], 100 to 1000 nM.

(Values after patent US20220162191A1, “SMALL MOLECULE MODULATORS OF IL-17” (LEO PHARMA A/S, priority 2019, published 2022).)
